PubChem BioAssay AID330 (DTP/NCI, 2004)
Toxic doses and inconclusive results are not listed. Rule for the calls: active = survival T/C of 150% or more; inactive = T/C below 125% in these data.

Test system: P388 leukemia ip, CD2F1 mice, survival T/C
Experiment: NCI In Vivo Anticancer Drug Screen. Data for tumor model P388 Leukemia (intraperitoneal) in CD2F1 (CDF1) mice
Conditions: endpoint: median survival time, higher = longer survival
How it was run: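 Mice carrying the transplanted tumor received test compound or vehicle. Survival was recorded in each group, and the value is the treated-group measurement divided by that of the vehicle-treated control group.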

[1] = dose: 50.0 mg/kg/injection, schedule: Q01DX005 (ip), vehicle: saline with Tween-80
[2] = dose: 100.0 mg/kg/injection, schedule: Q01DX005 (ip), vehicle: saline with Tween-80
[3] = dose: 200.0 mg/kg/injection, schedule: Q01DX005 (ip), vehicle: saline with Tween-80
[4] = dose: 50.0 mg/kg/injection, schedule: Q01DX009 (ip), vehicle: Klucel (hydroxypropylcellulose) (HPC)
[5] = dose: 100.0 mg/kg/injection, schedule: Q01DX009 (ip), vehicle: Klucel (hydroxypropylcellulose) (HPC)
[6] = dose: 200.0 mg/kg/injection, schedule: Q01DX009 (ip), vehicle: Klucel (hydroxypropylcellulose) (HPC)
[7] = dose: 50.0 mg/kg/injection, schedule: Q01DX005 (ip), vehicle: Klucel (hydroxypropylcellulose) (HPC)
[8] = dose: 100.0 mg/kg/injection, schedule: Q01DX005 (ip), vehicle: Klucel (hydroxypropylcellulose) (HPC)
[9] = dose: 200.0 mg/kg/injection, schedule: Q01DX005 (ip), vehicle: Klucel (hydroxypropylcellulose) (HPC)
[10] = dose: 50.0 mg/kg/injection, schedule: Q01DX009 (ip), vehicle: saline with Tween-80
[11] = dose: 15.0 mg/kg/injection, schedule: Q01DX005 (ip), vehicle: Klucel (hydroxypropylcellulose) (HPC)
[12] = dose: 30.0 mg/kg/injection, schedule: Q01DX005 (ip), vehicle: Klucel (hydroxypropylcellulose) (HPC)

Measured: T/C

CC(=O)N(O)c1ccc(Cl)cc1
inactive: dose: 25.0 mg/kg/injection, schedule: Q04DX002 (ip), vehicle: saline with Tween-80 100 % of control | dose: 50.0 mg/kg/injection, schedule: Q04DX002 (ip), vehicle: saline with Tween-80 102 % of control | dose: 100.0 mg/kg/injection, schedule: Q04DX002 (ip), vehicle: saline with Tween-80 100 % of control | dose: 200.0 mg/kg/injection, schedule: Q04DX002 (ip), vehicle: saline with Tween-80 105 % of control

COc1ccc(NC(=O)/N=C2\CN(C(=O)c3c(F)cccc3F)C(=O)N2c2ccc(OC)cc2)cc1
inactive: dose: 60.0 mg/kg/injection, schedule: Q01DX005 (ip), vehicle: saline with Tween-80 87 % of control | dose: 120.0 mg/kg/injection, schedule: Q01DX005 (ip), vehicle: saline with Tween-80 89 % of control | dose: 240.0 mg/kg/injection, schedule: Q01DX005 (ip), vehicle: saline with Tween-80 103 % of control

CS(=O)(=O)OC1COC(c2ccccc2)OC1C1OC(c2ccccc2)OCC1OS(C)(=O)=O (configuration not stated)
inactive: dose: 100.0 mg/kg/injection, schedule: Q01DX001 (ip), vehicle: Klucel (hydroxypropylcellulose) (HPC) 92 % of control | dose: 200.0 mg/kg/injection, schedule: Q01DX001 (ip), vehicle: Klucel (hydroxypropylcellulose) (HPC) 101 % of control | dose: 400.0 mg/kg/injection, schedule: Q01DX001 (ip), vehicle: Klucel (hydroxypropylcellulose) (HPC) 99 % of control

FS(F)(F)(F)(F)c1cccc(NC(=S)SCc2ccc3c(c2)OCO3)c1
inactive: dose: 50.0 mg/kg/injection, schedule: Q01DX009 (ip), vehicle: suspension in saline 102 % of control | dose: 100.0 mg/kg/injection, schedule: Q01DX009 (ip), vehicle: suspension in saline 106 % of control | dose: 200.0 mg/kg/injection, schedule: Q01DX009 (ip), vehicle: suspension in saline 102 % of control

S=c1[nH]nc(-c2ccccc2)n1C1CCCCC1
inactive: dose: 50.0 mg/kg/injection, schedule: Q04DX003 (ip), vehicle: saline with Tween-80 97 % of control | dose: 100.0 mg/kg/injection, schedule: Q04DX003 (ip), vehicle: saline with Tween-80 100 % of control | dose: 200.0 mg/kg/injection, schedule: Q04DX003 (ip), vehicle: saline with Tween-80 93 % of control

O=C(NC1CCCCC1(O)c1ccc([N+](=O)[O-])cc1)C(Cl)Cl (configuration not stated)
inactive: dose: 100.0 mg/kg/injection, schedule: Q04DX002 (ip), vehicle: Klucel (hydroxypropylcellulose) (HPC) 100 % of control | dose: 200.0 mg/kg/injection, schedule: Q04DX002 (ip), vehicle: Klucel (hydroxypropylcellulose) (HPC) 100 % of control

Cc1noc(/C=C\c2ccccc2O)c1[N+](=O)[O-]
inactive: [1] 92 % of control | [2] 99 % of control | [3] 97 % of control

O=C1CCC(=O)N1SCc1cccc2ccccc12
inactive: [4] 115 % of control | [5] 93 % of control | [6] 102 % of control

COc1ccc2c(C#N)cc3c(c[n+](C)c4ccccc34)c2c1
inactive: dose: 12.5 mg/kg/injection, schedule: Q04DX003 (ip), vehicle: distilled water + Tween-80 105 % of control | dose: 25.0 mg/kg/injection, schedule: Q04DX003 (ip), vehicle: distilled water + Tween-80 115 % of control

CN1C(=O)c2ccc3c4ccc5c6c(ccc(c7ccc(c2c37)C1=O)c64)C(=O)N(c1ccccc1)C5=O
inactive: [7] 87 % of control | [8] 86 % of control | [9] 86 % of control

COc1ccc(OC)c(NC(=O)Nc2nc(C)cs2)c1
inactive: [4] 92 % of control | [5] 93 % of control | [6] 90 % of control

O=[N+]([O-])c1ccc(CN2CCC(C(=S)Nc3ccccc3)=C2c2ccccc2)cc1
inactive: dose: 6.25 mg/kg/injection, schedule: Q01DX005 (ip), vehicle: Klucel (hydroxypropylcellulose) (HPC) 92 % of control | dose: 12.5 mg/kg/injection, schedule: Q01DX005 (ip), vehicle: Klucel (hydroxypropylcellulose) (HPC) 90 % of control | dose: 25.0 mg/kg/injection, schedule: Q01DX005 (ip), vehicle: Klucel (hydroxypropylcellulose) (HPC) 87 % of control | [8] 92 % of control | [9] 87 % of control

CC(=O)Nc1nc(N)nc(N)n1
inactive: [10] 106 % of control | dose: 100.0 mg/kg/injection, schedule: Q01DX009 (ip), vehicle: saline with Tween-80 103 % of control | dose: 200.0 mg/kg/injection, schedule: Q01DX009 (ip), vehicle: saline with Tween-80 88 % of control

CCCCN1C(=O)NC(C)C1=O (configuration not stated)
inactive: [1] 99 % of control | [2] 108 % of control | [3] 103 % of control

CCCCNC(=O)CCC(NS(=O)(=O)c1ccc(C)cc1)C(=O)NCCCC (configuration not stated)
inactive: [7] 93 % of control | [8] 100 % of control | [9] 93 % of control

O=C(O)CNc1ccccc1Br
inactive: [7] 105 % of control | [8] 97 % of control | [9] 96 % of control

O=C(O)c1ccc(N2C(=O)C3C4CCC(O4)C3C2=O)cc1 (configuration not stated)
inactive: dose: 6.25 mg/kg/injection, schedule: Q01DX005 (ip), vehicle: saline with Tween-80 101 % of control | dose: 12.5 mg/kg/injection, schedule: Q01DX005 (ip), vehicle: saline with Tween-80 101 % of control

COc1cc(NC(C)CCCN)c2ncccc2c1Oc1ccc(Cl)cc1 (configuration not stated)
inactive: dose: 12.5 mg/kg/injection, schedule: Q01DX009 (ip), vehicle: saline with Tween-80 91 % of control | dose: 25.0 mg/kg/injection, schedule: Q01DX009 (ip), vehicle: saline with Tween-80 90 % of control | [10] 94 % of control

COc1cccc2c1C(=O)c1c(O)c3c(c(O)c1C2=O)C[C@@](O)(C(C)=O)C[C@@H]3OC1CC(NC(=O)C(N)CCN)C(O)C(C)O1 (some centres not stated)
inactive: dose: 5.0 mg/kg/injection, schedule: Q04DX003 (ip), vehicle: water 96 % of control | dose: 10.0 mg/kg/injection, schedule: Q04DX003 (ip), vehicle: water 94 % of control | dose: 20.0 mg/kg/injection, schedule: Q04DX003 (ip), vehicle: water 99 % of control | dose: 40.0 mg/kg/injection, schedule: Q04DX003 (ip), vehicle: water 105 % of control | dose: 80.0 mg/kg/injection, schedule: Q04DX003 (ip), vehicle: water 118 % of control | dose: 160.0 mg/kg/injection, schedule: Q04DX003 (ip), vehicle: distilled water + Tween-80 106 % of control | dose: 320.0 mg/kg/injection, schedule: Q04DX003 (ip), vehicle: distilled water + Tween-80 105 % of control

CCC(C)/C(=C\C#N)NCCCCCCN/C(=C/C#N)C(C)CC (configuration not stated)
inactive: [11] 95 % of control | [12] 86 % of control | dose: 60.0 mg/kg/injection, schedule: Q01DX005 (ip), vehicle: Klucel (hydroxypropylcellulose) (HPC) 90 % of control | dose: 240.0 mg/kg/injection, schedule: Q01DX005 (ip), vehicle: Klucel (hydroxypropylcellulose) (HPC) 91 % of control

CC1(C)N=C(N)N=C(N)N1c1ccc(C(C#N)CCCc2ccccc2)cc1 (configuration not stated)
inactive: dose: 7.5 mg/kg/injection, schedule: Q01DX005 (ip), vehicle: Klucel (hydroxypropylcellulose) (HPC) 100 % of control | [11] 101 % of control | [12] 103 % of control

COc1cc2c(c(OC)c1OC)-c1cc3c(cc1C(OC1OC4COC(C)OC4C(O)C1O)C1COC(=O)C1C2)OCO3 (configuration not stated)
inactive: dose: 17.5 mg/kg/injection, schedule: Q01DX005 (ip), vehicle: Klucel (hydroxypropylcellulose) (HPC) 103 % of control | dose: 35.0 mg/kg/injection, schedule: Q01DX005 (ip), vehicle: Klucel (hydroxypropylcellulose) (HPC) 101 % of control | dose: 70.0 mg/kg/injection, schedule: Q01DX005 (ip), vehicle: Klucel (hydroxypropylcellulose) (HPC) 119 % of control | dose: 140.0 mg/kg/injection, schedule: Q01DX005 (ip), vehicle: Klucel (hydroxypropylcellulose) (HPC) 119 % of control
